Laboratory results taken from patent US5716971A, “Pyridine derivatives, their production and use” (Takeda Chemical Industries, Ltd., priority 1993, dated 1998).
Where two headings read alike, the source gives them in different places.

Columns and labels:
[1] = tested on: anesthetized dogs; assay: Action of increasing coronary blood flow in anesthetized dogs (administration into coronary artery); type: in vivo, dog; conditions: injected into coronary artery, 30 ug/day, anesthetized Beagle dogs
Protocol: Action of increasing coronary blood flow in anesthetized dogs (Administration into coronary artery) Method: Beagle dogs (10 to 12 kg body weight) were anesthetized with pentobarbital and subjected to thoractomy under artificial respiration. A by-pass fitted with an electromagnetic flowmeter (Nippon Koden) was prepared between the left coronary artery and left carotid artery,and the volume of coronary blood flow was measured. […]
Maximal change rate against the value measured before the administration (% of basal flow) and the duration period [shown in terms of the time (T1/2) in which the activity is reduced to half] are shown in Table 67. As a result, it is apparent that the compounds of this invention show action of increasing coronary blood flow.

[2] = tested on: specimen of rat aorta; assay: Vasorelaxation activity in a specimen of rat aorta: contraction caused by TEA and BaCl2; conditions: TEA (30-45 mM) and BaCl2 (0.3 mM) contraction, read-out: constriction inhibitory ratio
Protocol: Vasorelaxation activity in a specimen of rat aorta Effects on contraction caused by tetraethylammonium chloride (TEA) and barium chloride (BaCl2)
(§1) Male Wister rats (10 to 13 week old were employed for the experiment. After dehematization, the aorta was excised and a ring specimen (5 mm length) was prepared. The specimen was suspended in a bath filled with oxygenated (95% O2 -5%CO2) Krebs solution (36° C.). The ring specimen was fixed at one end and the other end was connected to a transducer (Nippon Koden) for recording tension to determine the tension. After a stabilization period of one hour, TEA (30-45 mM) and BaCl2 (0.3 mM) were added to the bath to cause vasoconstriction. After the constriction had reached a steady state (after about 15 minutes), a test compound was added to the bath and its relaxation activity was measured.

[3] = tested on: specimen of rat aorta; assay: Vasorelaxation activity in a specimen of rat aorta: contraction caused by KCl; conditions: read-out: constriction inhibitory ratio
Protocol: as §1
Vasorelaxation activity in a specimen of rat aorta Effects on contraction caused by potassium chloride (KCl)
The same experiment was conducted as in Experiment 1, excepting the use of KCl ([…]) instead of TEA and BaCl2

[4] = tested on: Spontaneously hypertensive rats; assay: Hypotensive activity in rats (Tail Cuff Method), oral; type: in vivo; conditions: Rattus norvegicus, SHR
Protocol: Hypotensive activity in rats (Tail Cuff Method)
Spontaneously hypertensive rats (SHR, male, 20 to 23 week old) were warmed up to 36° C. The blood pressure at the tail aorta was measured by the tail cuff method. The blood pressure was measured three times, i.e. before oral administration of the test compound, two hours after the administration and five hours after the administration. The test compound was orally administered in the state of a suspension in gum arabic.
Maximal, hypotensive effect against the blood pressure before the administration is shown as % pre. in Table 66. As a result, it is apparent that the compounds of this invention show hypotensive activity.

[5] = after 2 hours, read-out: Maximal hypotensive effect against blood pressure before administration (% pre.), after 2 hours
[6] = after 5 hours, read-out: Maximal hypotensive effect against blood pressure before administration (% pre.), after 5 hours

## CC(C)(C)O/N=C(/c1cc(Cl)c(F)cc1O)c1c(O)ccc[n+]1[O-] [Compound 58, (Z)-2-(5-chloro-4-fluoro-2-hydroxybenzoyl)-3-hydroxypyridine N-oxide O-t-butyloxime]
[1]
  duration (T1/2): time in which the activity is reduced to half: 47.7 min
[2]
  inhibition at 1 µM: 84%
  inhibition at 3 µM: 94%
[3]
  inhibition at 1 µM: 0%
  inhibition at 3 µM: 0%
[4]; [5]
  inhibition in vivo at 1 mg/kg: 35%
  inhibition in vivo at 10 mg/kg: 55%
[4]; [6]
  inhibition in vivo at 1 mg/kg: 19%
  inhibition in vivo at 10 mg/kg: 45%

## CC(C)(C)O/N=C(/c1cc(Br)ccc1O)c1c(O)ccc[n+]1[O-] [Compound 63, (Z)-2-(5-bromo-2-hydroxybenzoyl)-3-hydroxypyridine N-oxide O-t-butyloxime]
[1]
  duration (T1/2): time in which the activity is reduced to half: 2.4 min
[2]
  inhibition at 1 µM: 13%
  inhibition at 3 µM: 61%
  inhibition at 10 µM: 100%
[3]
  inhibition at 1 µM: 0%
  inhibition at 3 µM: 0%
  inhibition at 10 µM: 0%
[4]; [5]
  inhibition in vivo at 10 mg/kg: 42%
[4]; [6]
  inhibition in vivo at 10 mg/kg: 54%

## Cc1cc(O)c(/C(=N/OC(C)(C)C)c2c(O)ccc[n+]2[O-])cc1Br [Compound 67, (Z)-2-(5-bromo-2-hydroxy-4-methylbenzoyl)-3-hydroxypyridine N-oxide O-t-butyloxime]
[1]
  duration (T1/2): time in which the activity is reduced to half: 8.9 min
[2]
  inhibition at 1 µM: 32%
  inhibition at 3 µM: 89%
  inhibition at 10 µM: 100%
[3]
  inhibition at 1 µM: 0%
  inhibition at 3 µM: 0%
  inhibition at 10 µM: 0%
[4]; [5]
  inhibition in vivo at 10 mg/kg: 28%
[4]; [6]
  inhibition in vivo at 10 mg/kg: 35%

## CC(C)(C)O/N=C(/c1cc(Br)c(Cl)cc1O)c1cccc[n+]1[O-] [Compound 101, (Z)-2-(5-bromo-4-chloro-2-hydroxybenzoyl)pyridine N-oxide O-t-butyloxime]
[1]
  duration (T1/2): time in which the activity is reduced to half: 7.9 min
[2]
  inhibition at 1 µM: 71%
  inhibition at 3 µM: 65%
[3]
  inhibition at 1 µM: 3%
  inhibition at 3 µM: 25%
[4]; [5]
  inhibition in vivo at 3 mg/kg: 10%
[4]; [6]
  inhibition in vivo at 3 mg/kg: 11%

## CC(C)(C)C/N=C(/c1cc(Br)ccc1O)c1cccc[n+]1[O-] [Compound 105, (Z)-2-[(5-bromo-2-hydroxy)-α-neopentyliminobenzyl]pyridine N-oxide]
[1]
  duration (T1/2): time in which the activity is reduced to half: 2.9 min
[2]
  inhibition at 1 µM: 46%
  inhibition at 3 µM: 87%
[3]
  inhibition at 1 µM: 4%
  inhibition at 3 µM: 28%
[4]; [5]
  inhibition in vivo at 30 mg/kg: 59%
[4]; [6]
  inhibition in vivo at 30 mg/kg: 44%
